{
  "source": "patent US10370438B2",
  "about": "“Histamine-releasing factor (HRF), HRF-receptor and methods of modulating inflammation” (LA JOLLA INSTITUTE FOR ALLERGY AND IMMUNOLOGY, priority 2010, dated 2019)",
  "test_system": "BALB/c mice",
  "experiment": "OVA-induced food allergy (diarrhea) model",
  "type": "in vivo, mouse",
  "protocol": "BALB/c mice were intraperitoneally sensitised with OVA (50 μg/mouse) plus alum on days 0 and 14. From day 28, mice were intragastrically challenged with OVA (50 mg) three times a week (Brandt, E. B. et al. J. Clin. Invest. 112:1666-1677 (2003)). Before each challenge, mice were starved for 3 h, then pretreated intragastrically with GST or GST-N19 (100 μg), and rested for 30 min. The development of diarrhoea was visually monitored for 90 min after OVA challenge.\nTo evaluate the role of HRF in food allergy, an OVA-induced food allergy model developed by Brandt et al. (Brandt et al., J. Clin. Invest. 112:1666 (2003)) was employed. BALB/c mice that were 6-8-week-old were intraperitoneal (i.p.) immunized twice on days 0 and 14 with 50 μg of OVA in the presence of alum. From day 28, mice were intragastrically challenged with OVA (50 mg) three times a week. Before each challenge, mice were starved for 3 hours, then pretreated with GST or GST-N19 (100 μg/mouse) intragastrically, and rested for 30 minutes. Control mice were sensitized and challenged, but not pretreated. The development of diarrhea was monitored for ninety minutes after OVA challenge. […] Sections of jejunum and ileum from mice treated as in FIG. 14 were stained with chloroacetate esterase. […] There was a good correlation shown between the number of mucosal mast cells and the number of diarrhea occurrence during 10 OVA challenges (FIG. 15D). Increased serum IgE and IgG1, but not IgG2a, levels (FIG. 16) and increased expression of mRNAs encoding Th2 cytokines (IL-4, IL-5, IL-13) and proinflammatory cytokines (IL-6, IL-1β) in the intestines were observed (data not shown). In this Th2-skewed model, the amount of HRF in plasma from diarrhea-induced mice, as measured by immunoblotting, was increased by about 2 fold compared to PBS control mice (FIG. 16E). […] However, HRF-reactive IgE was not detected under the study conditions.",
  "note": "“Also recorded” adds a separate entry of the source.",
  "data": [
    {"substance": "GST-N19: GST fusion protein encoding the first 19 residues of mHRF; inhibitor of HRF/Ig interactions", "values": [
      {"measurement": "Development of diarrhea", "setting": "100 μg/mouse intragastrically before each OVA challenge, vs GST-pretreated or PBS-treated control mice", "result": "prevented in a much greater percentage of mice; also recorded: prevents"},
      {"measurement": "Increase in mucosal mast cells", "setting": "jejunum and ileum sections", "result": "inhibited"},
      {"measurement": "Increase in serosal mast cells", "setting": "jejunum and ileum sections", "result": "inhibited"},
      {"measurement": "Mastocytosis in the small intestine", "setting": "mouse, in vivo", "result": "inhibits"},
      {"measurement": "Plasma level of HRF-reactive IgG", "setting": "mouse, in vivo", "result": "not affected"},
      {"measurement": "Plasma level of total IgE", "setting": "mouse, in vivo", "result": "not affected"},
      {"measurement": "Plasma level of total IgG1", "setting": "mouse, in vivo", "result": "not affected"},
      {"measurement": "Plasma level of total IgG2a", "setting": "mouse, in vivo", "result": "not affected"}
    ]}
  ]
}
